In general, IC50 refers to the concentration at which inhibition is half-maximal.

For the assay, the target named is T1, human SK3 channel (hKCa2.3) (Homo sapiens, UniProt Q9UGI6).
T1 construct: expressed in transfected cells
The assay can be described thus: Automated whole cell patch-clamp (QPatch 16 HT), inhibition of SK3 current. The following applies: HEK-293 cells stably expressing hKCa2.3; symmetrical K+ solutions, free calcium 400 nM; effects normalized to N-methyl bicuculline. The assay is classed as cell-based. The essentials: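 HEK-293 cells stably expressing hKCa2.3, automated whole-cell patch clamp in symmetrical K+ (400 nM free intracellular Ca2+, pH 7.2; external pH 7.4). Held at 0 mV, ramps −80 to +80 mV (200 ms) every 5 s; increasing compound concentrations, currents run-down corrected and normalized to 100 μM N-methyl bicuculline; IC50 reported.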
On the technique in general: Patch clamp records ionic current or voltage across a cell membrane.
Take `CCN(CC(N)=O)C(=O)CC(Nc1nc2c(CO)cccc2[nH]1)c1cccc(C(F)(F)F)c1` (stereo not drawn) [Example 54, N-(carbamoylmethyl)-N-ethyl-3-{[4-(hydroxymethyl)-1H-1,3-benzodiazol-2-yl]amino}-3-[3-(trifluoromethyl)phenyl]propanamide]: the concentration for half-maximal inhibition (IC50) was less than 10 µM.

Take `COCCNC(=O)CC(Nc1nc2ccccc2[nH]1)c1cccc(OC(F)(F)F)c1` (stereo not drawn) [Example 84, 3-[(1H-1,3-benzodiazol-2-yl)amino]-N-(2-methoxyethyl)-3-[3-(trifluoromethoxy)phenyl]propanamide]: the IC50 is less than 10 µM.

Take `O=C(CC(Nc1nc2c(CO)cccc2[nH]1)c1cccc(C(F)(F)F)c1)NCCOC(F)(F)F` (stereo not drawn) [Example 94, 3-{[4-(hydroxymethyl)-1H-1,3-benzodiazol-2-yl]amino}-N-[2-(trifluoromethoxy)ethyl]-3-[3-(trifluoromethyl)phenyl]propanamide]: the half-maximal inhibitory concentration (IC50) is less than 10 µM.

Take `O=C(C(Nc1nc2ccccc2[nH]1)c1cccc(C(F)(F)F)c1)N1CC2(COC2)C1` (stereo not drawn) [Example 36, 2-[(1H-1,3-benzodiazol-2-yl)amino]-1-{2-oxa-6-azaspiro[3.3]heptan-6-yl}-2-[3-(trifluoromethyl)phenyl]ethan-1-one]: the half-inhibitory concentration (IC50) was 10 to 100 µM.

As to `O=C(CC(Nc1nc2ccccc2[nH]1)c1cccc(C(F)(F)F)c1)NCc1nccs1` (stereo not drawn) [Example 75, 3-[(1H-1,3-benzodiazol-2-yl)amino]-N-(1,3-thiazol-2-ylmethyl)-3-[3-(trifluoromethyl)phenyl]propanamide], the 50% inhibitory concentration (IC50) was less than 10 µM.

For `CCN(CCO)C(=O)C(Cc1cccc(C(F)(F)F)c1)Nc1nc2ccccc2[nH]1` (stereo not drawn) [Example 64, 2-[(1H-1,3-benzodiazol-2-yl)amino]-N-ethyl-N-(2-hydroxyethyl)-3-[3-(trifluoromethyl)phenyl]propanamide], the concentration for half-maximal inhibition (IC50) lay within 10 to 100 µM.

For `NCCNC(=O)C(Nc1nc2ccccc2[nH]1)c1cccc(C(F)(F)F)c1` (stereo not drawn) [Example 24, N-(2-aminoethyl)-2-[(1H-1,3-benzodiazol-2-yl)amino]-2-[3-(trifluoromethyl)phenyl]acetamide], the IC50 was 10 to 100 µM.

Regarding `CCN(CCO)C(=O)CC(Nc1nc2ccccc2[nH]1)c1cccc(C(F)(F)F)c1` (single isomer, unassigned; (-)) [Example 41a, (−)3-[(1H-1,3-benzodiazol-2-yl)amino]-N-ethyl-N-(2-hydroxyethyl)-3-[3-(trifluoromethyl)phenyl]propanamide], the 50% inhibitory concentration (IC50) is less than 10 µM.

`O=C(C(Nc1nc2ccccc2[nH]1)c1cccc(C(F)(F)F)c1)N1CCOCC1` (stereo not drawn) [Example 32, 2-[(1H-1,3-benzodiazol-2-yl)amino]-1-(morpholin-4-yl)-2-[3-(trifluoromethyl)phenyl]ethan-1-one]: the IC50 is less than 10 µM.

Regarding `CCS(=O)(=O)NCCNC(=O)CC(Nc1nc2ccccc2[nH]1)c1cccc(C(F)(F)F)c1` (stereo not drawn) [Example 3, 3-[(1H-1,3-benzodiazol-2-yl)amino]-N-(2-ethanesulfonamidoethyl)-3-[3-(trifluoromethyl)phenyl]propanamide], the half-inhibitory concentration (IC50) lay within 10 to 100 µM.

As for `CNCCN(C)C(=O)CC(Nc1nc2ccccc2[nH]1)c1cccc(C(F)(F)F)c1` (stereo not drawn) [Example 44, 3-[(1H-1,3-benzodiazol-2-yl)amino]-N-methyl-N-[2-(methylamino)ethyl]-3-[3-(trifluoromethyl)phenyl]propanamide], the IC50 was 10 to 100 µM.

Regarding `Cc1ncc(CNC(=O)CC(Nc2nc3ccccc3[nH]2)c2cccc(C(F)(F)F)c2)s1` (stereo not drawn) [Example 77, 3-[(1H-1,3-benzodiazol-2-yl)amino]-N-[(2-methyl-1,3-thiazol-5-yl)methyl]-3-[3-(trifluoromethyl)phenyl]propanamide], the half-inhibitory concentration (IC50) is less than 10 µM.

In the case of `CCOC(=O)NCc1ccc2[nH]c(NC(CC(=O)N(CC)CCO)c3cccc(C(F)(F)F)c3)nc2c1` (stereo not drawn) [Example 66, Ethyl N-{[2-({2-[ethyl(2-hydroxyethyl)carbamoyl]-1-[3-(trifluoromethyl)phenyl]ethyl}amino)-1H-1,3-benzodiazol-5-yl]methyl}carbamate], the IC50 lay within 10 to 100 µM.

Take `CN1CCN(C(=O)CC(Nc2nc3ccccc3[nH]2)c2cccc(C(F)(F)F)c2)CC1=O` (stereo not drawn) [Example 11, 4-{3-[(1H-1,3-benzodiazol-2-yl)amino]-3-[3-(trifluoromethyl)phenyl]propanoyl}-1-methylpiperazin-2-one]: the concentration for half-maximal inhibition (IC50) was in the range of 10 to 100 µM.

With `COCCNC(=O)CC(Nc1nc2ccccc2[nH]1)c1cc(C)c(F)c(C)c1` (stereo not drawn) [Example 80, 3-[(1H-1,3-benzodiazol-2-yl)amino]-3-(4-fluoro-3,5-dimethylphenyl)-N-(2-methoxyethyl)propanamide], the concentration for half-maximal inhibition (IC50) is less than 10 µM.

Consider `Cc1cc(CNC(=O)CC(Nc2nc3ccccc3[nH]2)c2cccc(C(F)(F)F)c2)ccn1` (stereo not drawn) [Example 79, 3-[(1H-1,3-benzodiazol-2-yl)amino]-N-[(2-methylpyridin-4-yl)methyl]-3-[3-(trifluoromethyl)phenyl]propanamide], for which the IC50 is less than 10 µM.

Take `CCOC(=O)CN(CC)C(=O)CC(Nc1nc2ccccc2[nH]1)c1cccc(C(F)(F)F)c1` (stereo not drawn) [Example 48, Ethyl 2-{3-[(1H-1,3-benzodiazol-2-yl)amino]-N-ethyl-3-[3-(trifluoromethyl)phenyl]propanamido}acetate]: the IC50 is less than 10 µM.

With `O=C(CC(Nc1nc2ccccc2[nH]1)c1cccc(OC(F)(F)F)c1)NCc1nc2ccccc2o1` (stereo not drawn) [Example 90, 3-[(1H-1,3-benzodiazol-2-yl)amino]-N-(1,3-benzoxazol-2-ylmethyl)-3-[3-(trifluoromethoxy)phenyl]propanamide], the half-inhibitory concentration (IC50) is less than 10 µM.

As for `CN(CCCO)C(=O)CC(Nc1nc2ccccc2[nH]1)c1cccc(C(F)(F)F)c1` (stereo not drawn) [Example 17, 3-[(1H-1,3-benzodiazol-2-yl)amino]-N-(3-hydroxypropyl)-N-methyl-3-[3-(trifluoromethyl)phenyl]propanamide], the 50% inhibitory concentration (IC50) is less than 10 µM.

Consider `O=C(C(Nc1nc2ccccc2[nH]1)c1cccc(C(F)(F)F)c1)N1CCC1` (stereo not drawn) [Example 34, 1-(azetidin-1-yl)-2-[(1H-1,3-benzodiazol-2-yl)amino]-2-[3-(trifluoromethyl)phenyl]ethan-1-one], for which the IC50 was less than 10 µM.

Consider `CN1CCN(C(=O)C(Nc2nc3ccccc3[nH]2)c2cccc(C(F)(F)F)c2)CC1` (single isomer, unassigned; (-)) [Example 27a, (−)2-[(1H-1,3-benzodiazol-2-yl)amino]-1-(4-methylpiperazin-1-yl)-2-[3-(trifluoromethyl)phenyl]ethan-1-one], for which the IC50 lay within 10 to 100 µM.

Consider `CCN(CCO)C(=O)CC(Nc1nc2ccccc2[nH]1)c1ccc(C)c(Cl)c1` (stereo not drawn) [Example 20, 3-[(1H-1,3-benzodiazol-2-yl)amino]-3-(3-chloro-4-methylphenyl)-N-ethyl-N-(2-hydroxyethyl)propanamide], for which the IC50 is less than 10 µM.

For `CCN(CCSC)C(=O)CC(Nc1nc2c(CO)cccc2[nH]1)c1cccc(C(F)(F)F)c1` (stereo not drawn) [Example 58, N-ethyl-3-{[4-(hydroxymethyl)-1H-1,3-benzodiazol-2-yl]amino}-N-[2-(methylsulfanyl)ethyl]-3-[3-(trifluoromethyl)phenyl]propanamide], the IC50 was less than 10 µM.

As for `COCCNC(=O)CC(Nc1nc2cc(F)c(F)cc2[nH]1)c1cccc(C(F)(F)F)c1` (stereo not drawn) [Example 95, 3-[(5,6-difluoro-1H-1,3-benzodiazol-2-yl)amino]-N-(2-methoxyethyl)-3-[3-(trifluoromethyl)phenyl]propanamide], the IC50 lay within 10 to 100 µM.

These data come from patent US11274092B2, “Potassium channel inhibitors” (ACESION PHARMA ApS, priority 2016, dated 2022).
